Source: patent publication US20260355212A1 (priority 2022, published 2026)
pIC50: −log10 of the molar value. Read-outs that look alike come from different tables or passages of the source.

Tests used:
MERS Mpro = MERS Mpro (Middle East respiratory syndrome-related coronavirus, UniProt K9N7C7); experiment: biochemical; design: species or system MERS-CoV
HCoV-HKU1 Mpro = HCoV-HKU1 Mpro (Human coronavirus HKU1, UniProt P0C6X2); experiment: HCoV-HKU1 Mpro enzymatic inhibition assay (fluorescence); type: biochemical
How it was run: (§1)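 IC50 values derive from variable-slope nonlinear regression of percent inhibition, each point corrected by a compound-plus-substrate background well lacking enzyme. Enzyme, pre-incubated 30 min at room temperature with inhibitor, was given substrate and read fluorimetrically (Ex/Em 340/490 nm) after 60 min at 30 °C.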

HCoV-OC43 Mpro = HCoV-OC43 Mpro (Human coronavirus OC43, UniProt P0C6X6); experiment: HCoV-OC43 Mpro enzymatic inhibition assay (fluorescence); type: biochemical
How it was run: as §1

SARS-CoV-1 Mpro = SARS-CoV-1 Mpro (Severe acute respiratory syndrome coronavirus, UniProt P0C6X7); experiment: biochemical
HCoV-229E Mpro = HCoV-229E Mpro (Human coronavirus 229E, UniProt P0C6X1); experiment: HCoV-229E Mpro enzymatic inhibition assay (fluorescence); type: biochemical
SARS-CoV-2 Mpro = SARS-CoV-2 Mpro (Severe acute respiratory syndrome coronavirus 2, UniProt P0DTD1); experiment: SARS-CoV-2 Mpro enzymatic inhibition assay (fluorescence); type: biochemical
How it was run: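 Recombinant Mpro expressed in E. coli was preincubated 30 min at room temperature with 10-point, 3-fold serially diluted compound in duplicate. Fluorogenic substrate was then added and incubated 60 min at 30° C, and fluorescence read at Ex/Em 340/490 nm. IC50 came from a four-parameter fit of % inhibition.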

HCoV-NL63 Mpro = HCoV-NL63 Mpro (Human coronavirus NL63, UniProt P0C6X5); experiment: HCoV-NL63 Mpro enzymatic inhibition assay (fluorescence); type: biochemical
How it was run: as §1

HCoV-NL63 Mpro, sequence (P0C6X5 2940-3242 limits assumed): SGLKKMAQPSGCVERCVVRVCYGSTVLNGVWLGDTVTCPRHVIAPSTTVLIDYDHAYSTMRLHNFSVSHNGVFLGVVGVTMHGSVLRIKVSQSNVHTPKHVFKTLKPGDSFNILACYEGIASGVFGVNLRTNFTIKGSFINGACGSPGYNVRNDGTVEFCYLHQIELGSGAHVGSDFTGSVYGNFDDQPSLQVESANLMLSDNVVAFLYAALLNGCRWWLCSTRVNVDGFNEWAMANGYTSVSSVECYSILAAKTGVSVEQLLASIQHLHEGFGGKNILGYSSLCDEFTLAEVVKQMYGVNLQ
MERS Mpro, sequence (K9N7C7 3248-3553 limits assumed): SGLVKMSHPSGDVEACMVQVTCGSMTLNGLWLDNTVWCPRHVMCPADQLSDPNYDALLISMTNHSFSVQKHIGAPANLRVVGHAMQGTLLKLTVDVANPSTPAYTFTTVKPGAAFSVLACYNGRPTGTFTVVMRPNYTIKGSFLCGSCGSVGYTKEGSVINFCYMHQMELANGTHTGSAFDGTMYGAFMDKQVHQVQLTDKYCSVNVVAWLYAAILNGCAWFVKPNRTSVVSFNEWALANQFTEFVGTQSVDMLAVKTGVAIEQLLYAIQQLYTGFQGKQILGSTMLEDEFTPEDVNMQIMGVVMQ
HCoV-229E Mpro, sequence (P0C6X1 2966-3267 limits assumed): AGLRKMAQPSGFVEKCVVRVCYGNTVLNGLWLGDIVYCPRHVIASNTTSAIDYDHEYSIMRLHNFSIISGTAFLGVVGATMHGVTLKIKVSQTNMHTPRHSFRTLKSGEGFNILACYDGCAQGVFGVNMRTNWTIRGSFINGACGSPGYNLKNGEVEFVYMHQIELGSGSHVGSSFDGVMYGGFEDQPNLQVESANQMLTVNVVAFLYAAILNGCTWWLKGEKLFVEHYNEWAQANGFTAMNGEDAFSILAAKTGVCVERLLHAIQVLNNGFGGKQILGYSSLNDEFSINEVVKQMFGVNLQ
HCoV-HKU1 Mpro, sequence (P0C6X2 3335-3637 limits assumed): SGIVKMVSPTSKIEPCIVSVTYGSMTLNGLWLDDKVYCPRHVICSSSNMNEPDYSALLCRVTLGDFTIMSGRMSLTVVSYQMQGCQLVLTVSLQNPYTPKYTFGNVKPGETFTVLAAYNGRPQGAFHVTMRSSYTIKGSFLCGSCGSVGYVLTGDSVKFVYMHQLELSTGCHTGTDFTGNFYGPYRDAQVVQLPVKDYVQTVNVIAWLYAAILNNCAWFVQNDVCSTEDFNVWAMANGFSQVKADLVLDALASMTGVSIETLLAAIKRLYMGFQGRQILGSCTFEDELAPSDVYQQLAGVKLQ
HCoV-OC43 Mpro, sequence (P0C6X6 3247-3549 limits assumed): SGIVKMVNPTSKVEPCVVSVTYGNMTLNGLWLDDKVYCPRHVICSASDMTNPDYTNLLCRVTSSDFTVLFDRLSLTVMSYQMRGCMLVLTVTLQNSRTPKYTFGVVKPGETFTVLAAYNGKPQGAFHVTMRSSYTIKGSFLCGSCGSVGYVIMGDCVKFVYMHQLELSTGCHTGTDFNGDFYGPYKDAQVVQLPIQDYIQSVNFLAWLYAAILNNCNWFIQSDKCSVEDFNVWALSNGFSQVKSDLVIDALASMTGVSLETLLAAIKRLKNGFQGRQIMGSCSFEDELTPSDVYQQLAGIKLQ

Question: Which results are given for `O=C[C@H](C[C@@H]1CCNC1=O)NC(=O)[C@@H]1C[C@@H](C2CCCCC2)CN1C(=O)c1cc2cccc(Cl)c2[nH]1` [Compound 81, (2S,4S)-1-(7-chloro-1H-indole-2-carbonyl)-4-cyclohexyl-N—((S)-1-oxo-3-((S)-2-oxopyrrolidin-3-yl)propan-2-yl)pyrrolidine-2-carboxamide]?
Answer: pIC50 (MERS Mpro): 5.53; pIC50 (HCoV-HKU1 Mpro): 7.43; pIC50 (HCoV-OC43 Mpro): 6.76; pIC50 (SARS-CoV-1 Mpro): 6.90; pIC50 (HCoV-229E Mpro): 7.11; pIC50 (SARS-CoV-2 Mpro): 7.45; pIC50 (HCoV-NL63 Mpro): 5.98

Question: With `CC1(C)[C@@H]2[C@@H](C(=O)N[C@H](C=O)C[C@@H]3CCNC3=O)N(C(=O)c3cc4cc(S(C)(=O)=O)ccc4[nH]3)C[C@@H]21` [Compound 80, (1R,2S,5S)-6,6-Dimethyl-3-(5-(methylsulfonyl)-1H-indole-2-carbonyl)-N—((S)-1-oxo-3-((S)-2-oxopyrrolidin-3-yl)propan-2-yl)-3-azabicyclo[3.1.0]hexane-2-carboxamide] as the molecule, how does the pIC50 (MERS Mpro) read?
Answer: 6.42

Question: What about the pIC50 (HCoV-HKU1 Mpro) of the same molecule?
Answer: 7.65

Question: And the pIC50 (HCoV-OC43 Mpro)?
Answer: 7.20

Question: What about the pIC50 (SARS-CoV-1 Mpro) of the same molecule?
Answer: 7.12

Question: And the pIC50 (HCoV-229E Mpro)?
Answer: 7.54

Question: What about the pIC50 (SARS-CoV-2 Mpro) of the same molecule?
Answer: 7.46

Question: What about the pIC50 (HCoV-NL63 Mpro) of the same molecule?
Answer: 7.32

Question: How did the pIC50 (MERS Mpro) turn out when `CC1(C)[C@@H]2[C@@H](C(=O)N[C@H](C=O)C[C@@H]3CCNC3=O)N(C(=O)c3cc4ccc(F)cc4[nH]3)C[C@@H]21` [Compound 19, (1R,2S,5S)-3-(6-fluoro-1H-indole-2-carbonyl)-6,6-dimethyl-N—((S)-1-oxo-3-((S)-2-oxopyrrolidin-3-yl)propan-2-yl)-3-azabicyclo[3.1.0]hexane-2-carboxamide] was run?
Answer: 6.73

Question: And the pIC50 (HCoV-HKU1 Mpro)?
Answer: 7.74

Question: What about the pIC50 (HCoV-OC43 Mpro) of the same molecule?
Answer: 7.30

Question: And the pIC50 (SARS-CoV-1 Mpro)?
Answer: 7.40

Question: And the pIC50 (HCoV-229E Mpro)?
Answer: 7.56

Question: What about the pIC50 (SARS-CoV-2 Mpro) of the same molecule?
Answer: 7.81

Question: What about the pIC50 (HCoV-NL63 Mpro) of the same molecule?
Answer: 7.43

Question: `O=C[C@H](C[C@@H]1CCNC1=O)NC(=O)[C@@H]1C[C@@H](C2CCCCC2)CN1C(=O)c1cc2c(F)cccc2[nH]1` [Compound 38, (2S,4S)-4-Cyclohexyl-1-(4-fluoro-1H-indole-2-carbonyl)-N—((S)-1-oxo-3-((S)-2-oxopyrrolidin-3-yl)propan-2-yl)pyrrolidine-2-carboxamide] was tested. Which pIC50 (MERS Mpro) did it give?
Answer: 6.29

Question: And the pIC50 (HCoV-HKU1 Mpro)?
Answer: 7.80

Question: What about the pIC50 (HCoV-OC43 Mpro) of the same molecule?
Answer: 7.34

Question: What about the pIC50 (SARS-CoV-1 Mpro) of the same molecule?
Answer: 7.01

Question: What about the pIC50 (HCoV-229E Mpro) of the same molecule?
Answer: 7.38

Question: What about the pIC50 (SARS-CoV-2 Mpro) of the same molecule?
Answer: 7.68

Question: And the pIC50 (HCoV-NL63 Mpro)?
Answer: 7.00

Question: With `CC1(C)[C@@H]2[C@@H](C(=O)N[C@H](C=O)C[C@@H]3CCNC3=O)N(C(=O)c3[nH]c4ccccc4c3-c3ccccc3)C[C@@H]21` [Compound 122, (1R,2S,5S)-6,6-Dimethyl-N—((S)-1-oxo-3-((S)-2-oxopyrrolidin-3-yl)propan-2-yl)-3-(3-phenyl-1H-indole-2-carbonyl)-3-azabicyclo[3.1.0]hexane-2-carboxamide] as the molecule, how does the pIC50 (MERS Mpro) read?
Answer: 5.81

Question: What about the pIC50 (HCoV-HKU1 Mpro) of the same molecule?
Answer: 6.44

Question: And the pIC50 (HCoV-OC43 Mpro)?
Answer: 6.37

Question: What about the pIC50 (SARS-CoV-1 Mpro) of the same molecule?
Answer: 6.63

Question: What about the pIC50 (HCoV-229E Mpro) of the same molecule?
Answer: 6.76

Question: What about the pIC50 (SARS-CoV-2 Mpro) of the same molecule?
Answer: 6.79

Question: And the pIC50 (HCoV-NL63 Mpro)?
Answer: 5.99

Question: What does the source list for `CCc1cccc2[nH]c(C(=O)N3C[C@H]4[C@@H]([C@H]3C(=O)N[C@H](C=O)C[C@@H]3CCNC3=O)C4(C)C)cc12` [Compound 14, (1R,2S,5S)-3-(4-ethyl-1H-indole-2-carbonyl)-6,6-dimethyl-N—((S)-1-oxo-3-((S)-2-oxopyrrolidin-3-yl)propan-2-yl)-3-azabicyclo[3.1.0]hexane-2-carboxamide]?
Answer: pIC50 (MERS Mpro): 6.49; pIC50 (HCoV-HKU1 Mpro): 7.65; pIC50 (HCoV-OC43 Mpro): 7.40; pIC50 (SARS-CoV-1 Mpro): 7.28; pIC50 (HCoV-229E Mpro): 7.40; pIC50 (SARS-CoV-2 Mpro): 7.84; pIC50 (HCoV-NL63 Mpro): 7.31

Question: Which results are given for `CC1(C)[C@@H]2[C@@H](C(=O)N[C@H](C=O)C[C@@H]3CCNC3=O)N(C(=O)c3cc4ccccc4[nH]3)C[C@@H]21` [Compound 60, (1R,2S,5S)-3-(1H-Indole-2-carbonyl)-6,6-dimethyl-N—((S)-1-oxo-3-((S)-2-oxopyrrolidin-3-yl)propan-2-yl)-3-azabicyclo[3.1.0]hexane-2-carboxamide]?
Answer: pIC50 (MERS Mpro): 6.56; pIC50 (HCoV-HKU1 Mpro): 7.54; pIC50 (HCoV-OC43 Mpro): 7.02; pIC50 (SARS-CoV-1 Mpro): 7.28; pIC50 (HCoV-229E Mpro): 7.27; pIC50 (SARS-CoV-2 Mpro; mean, 25 nM protein, 25 μM substrate, 30 min pre-incubation, 60 min at 30° C., read-out: Mpro_SARS-CoV-2 mean IC50): 7.58; pIC50 (HCoV-NL63 Mpro): 7.27
